PMC9860787, “Indene-Derived Hydrazides Targeting Acetylcholinesterase Enzyme in Alzheimer’s: Design, Synthesis, and Biological Evaluation” (Pharmaceutics, 2022)
Entries after “also recorded” stand apart in the source; their conditions may differ.

How the values were obtained:
hBuChE = target: T1, hBuChE (Homo sapiens, UniProt P06276); experiment: biochemical; details: Ellman method, triplicate, three independent runs; read-out: IC50 ± SE hBuChE
T1 construct: PTCh (derived from human plasma); from tissue; host or cells: human plasma
Description: (§1) Enzyme activities were determined using the Ellman spectrophotometric method. Enzyme substrates acetylthiocholine iodide (ATCh) and propionylthiocholine iodide (PTCh) were purchased from Sigma-Aldrich, Steinheim, Germany, and thiole reagent 5.5′-dithiobis-2-nitrobenzoic acid (DTNB) from Sigma-Aldrich, St. Louis, MO, USA. Donpezil and were used as reference compounds (purchased from sigma);
(§2) In initial state, ATCh (derived from human erythrocytes) and PTCh (derived from human plasma) were dissolved in water and DTNB in 0.1 M sodium phosphate buffer (pH 7.4). Sulindac analogues were dissolved in water, and all further dilutions were made in water. Final concentrations of synthetics were in the range of 0.01–200 µM, while substrates were 1.0 mM and 4.0 mM for ATCh and PTCh, respectively. The final dilution of AChE and BChE was 500 and 300 times, respectively. Briefly, 50 µL of AChE (1.00 U mL^−1) or 50 µL of BuChE (0.6 U mL^−1) and 20 µL of the test or standard compounds were incubated in 96 well plates for 30 min at room temperature. […] The IC50 values were calculated using absorbance obtained from the test and standard compounds. The assays were performed in triplicate with three independent runs.

hAChE = target: T2, hAChE (Homo sapiens, UniProt P22303); experiment: biochemical; details: for Selectivity Ratio = (IC50 of BuChE)/(IC50 of AChE): BuChE over AChE; for IC50: Ellman method, triplicate, three independent runs, read-out: IC50 ± SE hAChE
T2 construct: ATCh (derived from human erythrocytes); from tissue; host or cells: human erythrocytes
T2 sequence (P22303 other isoform, or with tags, fused parts or gaps): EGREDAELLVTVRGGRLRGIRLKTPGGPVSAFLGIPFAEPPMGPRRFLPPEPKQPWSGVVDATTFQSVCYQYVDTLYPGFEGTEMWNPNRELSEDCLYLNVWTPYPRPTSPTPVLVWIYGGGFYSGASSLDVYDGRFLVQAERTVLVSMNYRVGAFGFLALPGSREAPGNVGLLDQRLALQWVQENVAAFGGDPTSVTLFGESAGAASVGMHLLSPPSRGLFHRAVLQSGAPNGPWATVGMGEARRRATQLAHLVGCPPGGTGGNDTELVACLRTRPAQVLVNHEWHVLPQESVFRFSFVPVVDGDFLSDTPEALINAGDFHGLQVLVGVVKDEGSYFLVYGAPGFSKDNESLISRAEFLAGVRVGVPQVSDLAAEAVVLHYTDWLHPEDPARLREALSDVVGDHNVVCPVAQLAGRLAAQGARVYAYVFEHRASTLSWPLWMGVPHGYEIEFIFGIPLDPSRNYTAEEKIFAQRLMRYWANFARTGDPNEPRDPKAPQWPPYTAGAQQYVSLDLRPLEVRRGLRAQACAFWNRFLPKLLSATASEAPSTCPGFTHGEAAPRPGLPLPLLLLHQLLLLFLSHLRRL
Description: as §1, §2

Antioxidant DPPH assay = details: for antioxidant property (in words): DPPH assay, compared to ascorbic acid; for % Free Radicle Scavenging, Mean ± SE: DPPH
Description: The assay was performed by previously mentioned protocol. […] The volume of solution was adjusted to 200 μL using methanol. The 96-well plate was incubated at 37 °C for 25 min on shaking water bath with moderate shaking. The absorbance of reaction mixture was measured at 520 nm wavelength. The reducing percentage (RP) of the DPPH was determined by the equation: RP=100 (A0−Ac)/A0 where A0 was the control or untreated DPPH absorbance, and Ac was the test treated DPPH absorbance. Ascorbic acid was used as the standard for the DPPH assay. The assay was performed in triplicate.

[1] = system: SH-SY5Y neuroblastoma cell lines; experiment: Cell line-based toxicity study, MTT assay; details: 72 h
Description: The toxicity of compound SD-30 was evaluated against SH-SY5Y neuroblastoma cell lines by the MTT assay according to the literature procedure with minor modifications. Briefly, the cell lines (density 1 × 10^5 cells/wells) were plated in 96 well plates and incubated for 24 h at 37 °C in CO2 incubator. Various concentrations of SD-30 ([…]) were added, and cells were incubated for 72 h. After that, […] of MTT reagent was added, and the cells were incubated for an additional 2 h. The obtained purple colored formazan crystals were solubilized in […] DMSO. The absorbance was measured at 570 nm, and the % cell viability was calculated. Each treatment was executed in triplicate and data are presented as percentage of the control.
Generally, in vitro cell line studies have been routinely used as these can be helpful in primary optimization and mechanistic investigations before animal-based toxicology studies. The evaluation of the neuroprotection effect of compound SD-30 ([…]) on human neuroblastoma SH-SY5Y cell lines was assessed through MTT (3-(4,5-dimethylthiazol-2-yl)-2,5- diphenyl tetrazolium bromide) assay This cell line is often used in AD due to its human origin and ease of maintenance.

[2] = target: AChE induced Aβ 1-42 aggregation (Homo sapiens, UniProt P22303); format: biochemical; details: 10 and 20 µM, ThT, 48 h incubation
Sequence of AChE induced Aβ 1-42 aggregation (P22303 32-614): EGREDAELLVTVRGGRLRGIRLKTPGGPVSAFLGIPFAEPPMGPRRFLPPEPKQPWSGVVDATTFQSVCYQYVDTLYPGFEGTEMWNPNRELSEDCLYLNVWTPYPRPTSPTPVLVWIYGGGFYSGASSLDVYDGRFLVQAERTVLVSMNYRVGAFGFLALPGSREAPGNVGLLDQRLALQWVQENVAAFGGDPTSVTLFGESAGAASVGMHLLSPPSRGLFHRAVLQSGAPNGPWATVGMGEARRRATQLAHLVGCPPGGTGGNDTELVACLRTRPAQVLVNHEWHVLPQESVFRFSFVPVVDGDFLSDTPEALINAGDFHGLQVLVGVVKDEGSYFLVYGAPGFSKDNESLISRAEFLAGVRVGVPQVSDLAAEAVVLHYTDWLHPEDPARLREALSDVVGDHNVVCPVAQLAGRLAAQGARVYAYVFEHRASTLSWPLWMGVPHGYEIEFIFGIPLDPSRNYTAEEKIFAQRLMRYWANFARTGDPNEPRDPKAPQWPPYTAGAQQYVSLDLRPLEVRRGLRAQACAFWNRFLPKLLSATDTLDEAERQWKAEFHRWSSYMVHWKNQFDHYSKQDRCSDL
Description: Thioflavin T (ThT) assay was performed to determine the inhibition potential of SD-30 against AChE induced Aβ 1-42 aggregation. Aβ 1-42, purchased from Sigma, dissolved in the 10 mM phosphate buffer (PBS) of pH 7.5 to get a stock concentration of […]. The test compounds were dissolved in distilled water and further diluted with PBS. Different proportions of the Aβ 1-42: Inhibitor (1:0.5, 1:10, 1:20) were used in the ThT assay. […] The mixtures were incubated at room temperature for 48 h in the dark. […] The ThT assay was performed in triplicate and in three independent runs.

Row | SMILES | IC50 (hBuChE) | Selectivity Ratio = (IC50 of BuChE)/(IC50 of AChE) (hAChE) | IC50 (hAChE) | antioxidant property (in words) (Antioxidant DPPH assay) | % Free Radicle Scavenging, Mean ± SE (Antioxidant DPPH assay; 50 µM) | % Free Radicle Scavenging, Mean ± SE (Antioxidant DPPH assay; 100 µM) | concentration up to which no significant toxicity / cytotoxicity was observed [1] | effect on AChE-induced Aβ1-42 aggregation (in words) [2]
1 | CC1=C(CC(=O)NN=Cc2cccc(O)c2)c2cc(F)ccc2C1=Cc1ccc([S+](C)[O-])cc1 (stereo in doubt) [SD-24, 2-(5-fluoro-2-methyl-1-((E)-4-(methylsulfinyl)benzylidene)-1H-inden-3-yl)-N’-((E)-3-hydroxybenzylidene)acetohydrazide] | 92.86 ± 0.066 µM | 2.30 | 40.43 ± 0.067 µM | reasonable antioxidant property | 17.68 ± 0.478% | 43.61 ± 0.983% | – | –
2 | CC1=C(CC(=O)NN=Cc2cccc(O)c2O)c2cc(F)ccc2/C1=C\c1ccc([S+](C)[O-])cc1 (centres unmarked) [SD-42] | 264.33 ± 0.068 µM | 2.86 | 92.44 ± 0.106 µM | reasonable antioxidant property | 30.43 ± 0.299% | 64.98 ± 1.071% | – | –
3 | COc1cccc(C=NNC(=O)CC2=C(C)C(=Cc3ccc([S+](C)[O-])cc3)c3ccc(F)cc32)c1 (stereo in doubt) [SD-25, 2-(5-fluoro-2-methyl-1-((E)-4-(methylsulfinyl)benzylidene)-1H-inden-3-yl)-N’-((E)-3-methoxybenzylidene) acetohydrazide] | > 1000 µM | – | > 1000 µM | – | 14.00 ± 0.345% | 40.95 ± 1.101% | – | –
4 | CC1=C(CC(=O)NN=Cc2c(O)cccc2O)c2cc(F)ccc2/C1=C\c1ccc([S+](C)[O-])cc1 (centres unmarked) [SD-40] | 286.01 ± 0.143 µM | 2.63 | 108.9 ± 0.142 µM | – | 28.67 ± 0.422% | 63.42 ± 0.831% | – | –
5 | O=C1O[C@H]([C@@H](O)CO)C(O)=C1O [Ascorbic acid, reference compound] | – | – | – | – | 42.66 ± 1.491% | 76.76 ± 0.708% | – | –
6 | CC1=C(CC(=O)NN=Cc2ccc(O)cc2)c2cc(F)ccc2C1=Cc1ccc([S+](C)[O-])cc1 (stereo in doubt) [SD-30, 2-(5-fluoro-2-methyl-1-((E)-4-(methylsulfinyl)benzylidene)-1H-inden-3-yl)-N’-((E)-4-hydroxybenzylidene)acetohydrazide] | 48.55 ± 0.136 µM | 3.50 | 13.9 ± 0.163 µM | reasonable antioxidant properties; also recorded: reasonable antioxidant property | 17.37 ± 0.988% | 45.39 ± 1.036% | up to 30 mM | effectively inhibited AChE-induced Aβ aggregation; also recorded: effective on Aβ1-42 aggregation; also recorded: concentration-dependent decrease in the Aβ aggregation
7 | COc1ccccc1C=NNC(=O)CC1=C(C)C(=Cc2ccc([S+](C)[O-])cc2)c2ccc(F)cc21 (stereo in doubt) [SD-31, 2-(5-fluoro-2-methyl-1-((E)-4-(methylsulfinyl)benzylidene)-1H-inden-3-yl)-N’-((E)-2-methoxybenzylidene) acetohydrazide] | > 1000 µM | – | 733.16 ± 0.143 µM | – | 12.24 ± 0.222% | 39.39 ± 0.860% | – | –
